Assays:
[1] = Glucose sensitivity testing of chloro-oxazine-one boronate (COB); conditions: glucose zero to 600 mg/dL; 66% MeOH/buffer pH 7.4; 450/560 nm
Procedure: To investigate the conjugated organic heterocyclic ring system compounds as fluorophores, an oxazine-one system was studied. An oxazine-one is described as a neutral (uncharged) precursor to a charged oxazine dye. The relevant values for the COB system for the Rehm-Weller equation are: ΔGPET=−12.1 kcal/mole, E^0(Z^ox)=0.88V, E^0(F^red)=−1.10V, and ΔE00=57.8 kcal/mole. The compound's response to glucose in several solvent systems was characterized. A stock solution of the compound was prepared by dissolving 5.7 mg in 5 mL of methanol. Samples were prepared by adding 30 μL of this stock solution to 3 mL of solvent.
Glucose sensitivity testing was performed on the oxazine-one compound. Samples were prepared as described above and titrated with 30 μL aliquots of concentrated glucose solution (300 mg/mL). […] Following an initial period in which the baseline fluorescence level was determined, four 30 μL aliquots of glucose were introduced into the sample resulting in a final glucose concentration of approximately 1200 mg/dL. In this solvent system, glucose transduction yields a 45% increase in the fluorescence intensity as the glucose concentration is increased from zero to 600 mg/dL.
COB's response was evaluated in several solvent systems. […]
Based on these spectra, excitation and emission wavelengths of 450 nm and 560 nm, respectively, were chosen for subsequent steady-state fluorescence tests. […]

[2] = Rehm-Weller estimate of free energy of photoinduced electron transfer (PET); assay type: physicochemical
From the text: The search for new fluorescent glucose transducers based on photoelectron transfer (PET) requires, among other things, an understanding of the electrochemistry of any potential donor-acceptor pair. The free energy of PET (ΔGel) can be calculated using the Rehm-Weller equation shown below:
ΔGel(kcal mol^−1)=23.06[E^0(D^+/D)−E^0(A/A^−)]−wp−wr−ΔG00 where E^0(D^+/D) is the oxidation potential of the donor, E^0(A/A^−) is the reduction potential of the acceptor, and ΔG00 is the free energy corresponding to the equilibrium energy E00 (see e.g. Kavarnos, G. J. In Fundamentals of photoinduced electron transfer, VCH Publishers: New York, N.Y., 1993; p Chapter 1 and Rehm and Weller, Ist. J. Chem. 1970, 8, 259). The quantities wp and wr are Coulombic terms for the products and reactants, and ate found to be small in polar solvents. To simplify predictions, we assume wp and wr to be zero, and estimate E00 as the energy corresponding to [λmax(ex)+λmax(em)]/2 for each fluorophore.
ΔGPET=23.06[E^0(Z^oxidation)−E^0(F^reduction)]−ΔE00],
The electrochemical potentials can be measured using the individual molecular groups before assembling the complete molecule.
Electrochemistry. The search for new fluorescent glucose transducers based on PET requires, among other things, an understanding of the electrochemistry of any potential donor-acceptor pair. The free energy of PET (ΔGel) can be calculated using the Rehm-Weller equation shown in eq 1, where E^0(D^+/D) is the oxidation potential of the […]
ΔGe(kcal mol^−1)=23.06[E^0(D^+/D)−E^0(A/A^−)]−wp−wr−ΔG00 (1) donor, E^0(A/A^−) is the reduction potential of the acceptor, and ΔG00 is the free energy corresponding to the equilibrium energy E00. The quantities wp and wr are Coulombic terms for the products and reactants, and are found to be small in polar solvents. In our case, wr=0 since the reactants are neutral. To simplify predictions, we assume wp to be zero and estimate E00 as the energy corresponding to [λmax(ex)+λmax(em)]/2 for each fluorophore. […]
it is possible to estimate the free energy of photoinduced electron transfer (PET) in these systems (see e.g. Kavamos, G. J. Fundamentals of Photoinduced Electron Transfer, VCH: New York, 1993; pp 37-40). E0(D^+/D) and E^0(A/A^−) correspond to the […] of the electron donor (i.e. amine) and electron acceptor (i.e. fluorophore), respectively. The quantity ΔG00, is the equilibrium energy, which we estimate as the energy corresponding to the equilibrium wavelength λ00. As an estimate of λ00, we use the average of the excitation and emission maxima for each fluorophore. Smaller solvent-dependent work terms for the Coulombic interaction between the reactants and products are left out for simplicity. Since the mechanism of fluorescence switching in these systems depends on PET, this gives us a rough estimate of which fluorophores should give the best response to glucose.

[3] = Cyclic voltammetry (glassy carbon, Ag/AgCl reference, 0.1 M NBu4ClO4 in acetonitrile); assay type: physicochemical
Procedure: Samples for FT IR spectroscopy were prepared as solutions in CHCl3, and only the C═O stretches are reported. Unless otherwise stated, all NMR spectra were recorded at 500 MHz for ^1H and 125 MHz for ^13C at 20-25° C. using CDCl3 as the solvent. Unless stated otherwise, mass spectra were obtained using electrospray ionization (50 V) with a 50/50 methanol/water solvent mixture with ^1% acetic acid added. Cyclic voltammetry was conducted using a glassy carbon working electrode, platinum counter electrode, and Ag/AgCl reference electrode and carried out in a 0.1 M solution of NBu4ClO4 in acetonitrile.
Summarized Syntheses. As the syntheses are described as a series of analogous compounds with general procedures are given below. Cyclic voltammetry was conducted using a glassy carbon working electrode, platinum counter electrode, and Ag/AgCl reference electrode and carried out in a 0.1 M solution of NBu4ClO4 in acetonitrile. Samples for fluorescence were prepared as 1.00 mM stock solutions in MeOH. A 30.0 μL aliquot of solution was then added to 3.000 mL of the appropriate solvent mixture (a combination of methanol and phosphate buffered saline—PBS). Relative quantum yields were determined by the relative output of equimolar solutions of two compounds using 3ay as a reference. Glucose additions were performed by the addition of a concentrated solution of glucose in PBS to a stirred solution of the fluorescent molecule in methanol/PBS.
General. All reactions were performed under an atmosphere of N2, followed by work-up in air. Protected boronate esters were stored under vacuum to prevent slow hydrolysis from atmospheric moisture. Unless stated otherwise, all chemicals were purchased from commercial suppliers. Anhydrous solvents from Aldrich were used for all reactions. Starting compounds known in the art such as N-n-butyl-4-chloronaphthalene-1,8-dicarboximide(1ax), 2,2-dimethylpropane-1,3-diyl[o-(bromomethyl) phenyl]boronate, were prepared by literature methods (see e.g. Daffy et al. Chem-Eur J 1998, 4, 1810-1815; de Silva et al., Chem Rev 1997, 97, 1515-1566). Samples for FT IR spectroscopy were prepared as solutions in CHCl3, and only the C═O stretches are reported here. All mass spectra were obtained using electrospray ionization (ESI/MS) with an ionization potential of 50V and a solvent system consisting of 1% acetic acid in 50/50 methanol/water. Cyclic voltammetry was conducted using a glassy carbon working electrode, platinum counter electrode, and Ag/AgCl reference electrode and carried out in a 0.1 M solution of NBu4ClO4 in acetonitrile. Samples for fluorescence measurements were prepared as 1.00 mM stock solutions in MeOH. A 30.0 μL aliquot of solution was then added to 3.000 mL of the appropriate solvent mixture (a combination of methanol and phosphate buffered saline—PBS) giving a final concentration of 10.0 μM for each complex. Changes in pH were carried out by the addition of small volumes of concentrated hydrochloric acid, acetic acid, or sodium hydroxide. Glucose additions were performed by the addition of a concentrated solution of glucose in PBS to a stirred solution of fluorophore in a cuvette. Relative quantum yield measurements were carried out by measuring the relative intensities of equimolar solutions (10.0 μM) of two fluorophores. Compound 3ay was used as the reference.

6-chloro-5H-benzo[a]phenoxazin-5-one boronate [COB]
increase in the fluorescence intensity [1]: 45%
ΔE00, energy of the excited state fluorophore [2]: 57.8 kcal/mol
ΔGPET ([2]; simplified Rehm-Weller equation): -12.1 kcal/mol
E^0(F^red), reduction potential of the fluorophore [3]: −1.10 V
E^0(Z^ox), oxidation potential of the switch [3]: 0.88 V

Reference: patent publication US6673625B2, “Saccharide sensing molecules having enhanced fluorescent properties” (The Regents of the University of California, priority 1999, dated 2004)
